PubChem BioAssay (NCI)
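Five concentrations, 48 hours, 96-well plates. GI50: concentration for 50% inhibition of growth. The concentration for full growth arrest is given as TGI.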

How the values were obtained:
Test in all cases: NCI-60 cell line screen, 48 h; in the data active = GI50 below about 0.43 µM; inactive = the rest
DU-145 prostate = tested on: DU-145 prostate
SF-295 CNS = tested on: SF-295 CNS
OVCAR-5 ovarian = tested on: OVCAR-5 ovarian
NCI-H23 lung = tested on: NCI-H23 lung
HT29 colon = tested on: HT29 colon
IGROV1 ovarian = tested on: IGROV1 ovarian
COLO 205 colon = tested on: COLO 205 colon
HOP-92 NSCLC = tested on: HOP-92 NSCLC
OVCAR-8 ovarian = tested on: OVCAR-8 ovarian
UO-31 renal = tested on: UO-31 renal
786-0 renal = tested on: 786-0 renal
NCI-H522 lung = tested on: NCI-H522 lung
KM12 colon = tested on: KM12 colon
HS 578T breast = tested on: HS 578T breast
MALME-3M melanoma = tested on: MALME-3M melanoma
RXF 393 renal = tested on: RXF 393 renal
SW-620 colon = tested on: SW-620 colon
MDA-N = tested on: MDA-N
SN12C renal = tested on: SN12C renal
ACHN renal = tested on: ACHN renal
SK-OV-3 ovarian = tested on: SK-OV-3 ovarian
SNB-75 CNS = tested on: SNB-75 CNS
HCT-15 colon = tested on: HCT-15 colon
NCI/ADR-RES ovarian = tested on: NCI/ADR-RES ovarian
HCT-116 colon = tested on: HCT-116 colon
UACC-257 melanoma = tested on: UACC-257 melanoma
UACC-62 melanoma = tested on: UACC-62 melanoma
TK-10 renal = tested on: TK-10 renal
M14 melanoma = tested on: M14 melanoma
OVCAR-4 ovarian = tested on: OVCAR-4 ovarian
CAKI-1 renal = tested on: CAKI-1 renal
SNB-19 CNS = tested on: SNB-19 CNS
SR leukemia = tested on: SR leukemia
MDA-MB-435 = tested on: MDA-MB-435
MOLT-4 leukemia = tested on: MOLT-4 leukemia
CCRF-CEM leukemia = tested on: CCRF-CEM leukemia
HCC-2998 colon = tested on: HCC-2998 colon
EKVX NSCLC = tested on: EKVX NSCLC
NCI-H460 lung = tested on: NCI-H460 lung
LOX IMVI melanoma = tested on: LOX IMVI melanoma
SK-MEL-2 melanoma = tested on: SK-MEL-2 melanoma
MDA-MB-231 breast = tested on: MDA-MB-231 breast
PC-3 prostate = tested on: PC-3 prostate
A549 NSCLC = tested on: A549 NSCLC
U251 CNS = tested on: U251 CNS
SK-MEL-28 melanoma = tested on: SK-MEL-28 melanoma
RPMI-8226 leukemia = tested on: RPMI-8226 leukemia
MCF7 breast = tested on: MCF7 breast
SK-MEL-5 melanoma = tested on: SK-MEL-5 melanoma

N#Cc1ccc(NC(=O)C(CC(=O)OCc2ccccc2)NC(=O)OCc2ccccc2)cc1 (stereo not drawn)
> 100 µM: TGI (DU-145 prostate) | TGI (SF-295 CNS) | TGI (OVCAR-5 ovarian) | TGI (NCI-H23 lung) | TGI (HT29 colon) | TGI (IGROV1 ovarian) | TGI (COLO 205 colon) | TGI (HOP-92 NSCLC) | TGI (OVCAR-8 ovarian) | TGI (UO-31 renal) | TGI (786-0 renal) | TGI (NCI-H522 lung) | TGI (KM12 colon) | TGI (HS 578T breast) | TGI (MALME-3M melanoma) | TGI (RXF 393 renal) | TGI (SW-620 colon) | TGI (MDA-N) | TGI (SN12C renal) | TGI (ACHN renal) | TGI (SK-OV-3 ovarian) | TGI (SNB-75 CNS) | TGI (HCT-15 colon) | TGI (NCI/ADR-RES ovarian) | TGI (HCT-116 colon) | TGI (UACC-257 melanoma) | TGI (UACC-62 melanoma) | TGI (TK-10 renal) | TGI (M14 melanoma) | TGI (OVCAR-4 ovarian) | TGI (CAKI-1 renal) | TGI (SNB-19 CNS) | TGI (SR leukemia) | TGI (MDA-MB-435) | TGI (MOLT-4 leukemia) | TGI (CCRF-CEM leukemia) | TGI (HCC-2998 colon) | TGI (EKVX NSCLC) | TGI (NCI-H460 lung) | TGI (LOX IMVI melanoma) | TGI (SK-MEL-2 melanoma) | TGI (MDA-MB-231 breast) | TGI (PC-3 prostate) | TGI (A549 NSCLC) | TGI (U251 CNS) | TGI (SK-MEL-28 melanoma) | TGI (RPMI-8226 leukemia) | TGI (MCF7 breast) | TGI (SK-MEL-5 melanoma)
inactive: GI50 (SF-295 CNS) > 100 µM | GI50 (OVCAR-5 ovarian) > 100 µM | GI50 (NCI-H23 lung) > 100 µM | GI50 (HT29 colon) > 100 µM | GI50 (IGROV1 ovarian) > 100 µM | GI50 (COLO 205 colon) > 100 µM | GI50 (HOP-92 NSCLC) > 100 µM | GI50 (OVCAR-8 ovarian) > 100 µM | GI50 (UO-31 renal) > 100 µM | GI50 (786-0 renal) > 100 µM | GI50 (NCI-H522 lung) > 100 µM | GI50 (KM12 colon) > 100 µM | GI50 (HS 578T breast) > 100 µM | GI50 (RXF 393 renal) > 100 µM | GI50 (SW-620 colon) > 100 µM | GI50 (MDA-N) > 100 µM | GI50 (SN12C renal) > 100 µM | GI50 (ACHN renal) > 100 µM | GI50 (SK-OV-3 ovarian) > 100 µM | GI50 (SNB-75 CNS) > 100 µM | GI50 (HCT-15 colon) > 100 µM | GI50 (NCI/ADR-RES ovarian) > 100 µM | GI50 (HCT-116 colon) > 100 µM | GI50 (UACC-257 melanoma) > 100 µM | GI50 (UACC-62 melanoma) > 100 µM | GI50 (TK-10 renal) > 100 µM | GI50 (M14 melanoma) > 100 µM | GI50 (OVCAR-4 ovarian) > 100 µM | GI50 (CAKI-1 renal) > 100 µM | GI50 (SNB-19 CNS) > 100 µM | GI50 (SR leukemia) > 100 µM | GI50 (MDA-MB-435) > 100 µM | GI50 (MOLT-4 leukemia) > 100 µM | GI50 (CCRF-CEM leukemia) > 100 µM | GI50 (EKVX NSCLC) > 100 µM | GI50 (NCI-H460 lung) > 100 µM | GI50 (LOX IMVI melanoma) > 100 µM | GI50 (MDA-MB-231 breast) > 100 µM | GI50 (PC-3 prostate) > 100 µM | GI50 (A549 NSCLC) > 100 µM | GI50 (U251 CNS) > 100 µM | GI50 (SK-MEL-28 melanoma) > 100 µM | GI50 (RPMI-8226 leukemia) > 100 µM | GI50 (MCF7 breast) > 100 µM
